# Patent publication US20070184135A1, “Morinda citrifolia-based formulation 5-LOX and 15-LOX” (priority 2003, published 2007)
# Values joined by “and” are separate entries in the source; they are usually repeats but may differ in a detail not shown here. Equal values may be shown once.
# Molecular target: T1, 5-Lipoxygenase (Homo sapiens, UniProt P09917)
# T1 construct: Human peripheral blood mononuclear leukocytes (PBML) were isolated through a Ficoll-Paque density gradient; endogenous in cells; host or cells: human peripheral blood mononuclear leukocytes (PBML)
# T1 sequence (P09917 1-674): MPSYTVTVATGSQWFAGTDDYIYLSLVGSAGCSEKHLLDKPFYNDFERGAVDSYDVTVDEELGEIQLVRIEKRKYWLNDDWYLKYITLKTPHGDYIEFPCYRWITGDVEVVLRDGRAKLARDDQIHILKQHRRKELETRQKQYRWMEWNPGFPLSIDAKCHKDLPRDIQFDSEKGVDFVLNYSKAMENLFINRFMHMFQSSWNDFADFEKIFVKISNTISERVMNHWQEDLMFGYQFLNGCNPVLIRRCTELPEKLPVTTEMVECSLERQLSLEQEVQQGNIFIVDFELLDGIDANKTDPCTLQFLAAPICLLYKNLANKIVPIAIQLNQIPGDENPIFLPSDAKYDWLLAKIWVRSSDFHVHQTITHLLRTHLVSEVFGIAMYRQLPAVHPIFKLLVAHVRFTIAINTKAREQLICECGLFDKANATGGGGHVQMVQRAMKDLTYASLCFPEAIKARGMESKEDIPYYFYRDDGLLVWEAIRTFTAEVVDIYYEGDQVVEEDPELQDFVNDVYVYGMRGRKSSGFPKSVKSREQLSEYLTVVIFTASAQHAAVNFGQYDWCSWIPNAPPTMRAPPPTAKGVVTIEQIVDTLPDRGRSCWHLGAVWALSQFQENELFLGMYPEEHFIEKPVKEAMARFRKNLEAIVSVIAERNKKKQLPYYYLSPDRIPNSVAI
# Assay: 5-Lipoxygenase inhibition in human PBML stimulated with A 23187, LTB4 measured by EIA
# Type: cell-based
# Excerpt: Methods employed in this example were adapted from the scientific literature to maximize reliability and reproducibility. […] 110-13 (2000).
# In this study, the 5-LOX source was human peripheral blood mononuclear cells (PBMNC) and the substrate was arachidonic acid having a general reaction of: arachidonic acid→5-LOX→5-HPETE→LTB4. Human peripheral blood mononuclear leukocytes (PBML) were isolated through a Ficoll-Paque density gradient. The inhibiting agent was processed Morinda citrifolia puree juice concentrate. Morinda citrifolia was pre-incubated with PBML (5×10^6 cell/ml) in HBSS buffer pH 7.4 at 37° C. for 15 minutes. […] Following neutralization with NaOH and centrifugation, the supernatant LTB4 is measured using an EIA kit.
# The supernatant sample was utilized in same assay and protocols as outlined in Example One above, wherein the brown substance obtained was substituted for Morinda citrifolia puree juice.
smiles,measurement,setting,value
"CC(Cc1ccc(O)c(O)c1)C(C)Cc1ccc(O)c(O)c1 (centres unmarked) [NDGA, nordihydroguaretic acid]",Product,0.03 uM,3608.3 pg/well and 3403.4 pg/well
same,Product,0.1 uM,2433.3 pg/well
same,Product,0.3 uM,1083.1 pg/well and 1106.1 pg/well
same,Product,1 uM,233.7 pg/well and 217.9 pg/well
same,Product,3 uM,134.9 pg/well and 94.3 pg/well
